Laboratory results as given in patent publication US20230021483A1, “[…] […] METHOD AND CLASSIFICATION OF PHARMACEUTICAL COMPONENTS BY USING TRANSCRIPTOMES” (National Institutes of Biomedical Innovation, Health and …, priority 2016, published 2023).
Where “and” joins values, the source holds several entries; their conditions need not be identical. Equal values may be shown once.

What was measured:
Type in all cases: in vivo, C57BL/6 mice
[1] = test system: preferentially upregulated genes in LV, SP, LN; assay: Z-score-based differential gene expression analysis (adjuvant group- or adjuvant-associated genes, 40 module mapping, TargetMine annotation)
In short: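 Gene groups for each organ were built from combined z-score cutoffs across adjuvants, ranging from z>1 to z>3. Scores came from fold changes standardized per gene over the whole organ data set, with the three replicate z-scores added per adjuvant; sums above 3 marked preferential expression.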

[2] = test system: spleen (SP); assay: Whole organ transcriptome (GeneChip microarray) of spleen 6 h after adjuvant administration: sDEGs, hierarchical clustering; details: i.d. administration
[3] = test system: inguinal lymph nodes (LN); assay: Whole organ transcriptome (GeneChip microarray) of draining inguinal lymph nodes 6 h after adjuvant administration: sDEGs, gene modules, hierarchical clustering; details: lymph node; as to adjuvant group (cluster) in LN: key: G1 (interferon signaling); G2 (metabolism of lipids and lipoproteins); G3 (response to stress); G4 (response to wounding); G5 (phosphate-containing compound metabolic process); G6 (phagosome)
[4] = ID, LN, samples x1-x3, Module#(LN) 40
[5] = liver (LV), gene group G1, module 20, individual mice x1-x3, route ID/IP/IN

## D35: A class CpG ODN (5′-GGTGCATCGATGCAGGGGGG-3′), TLR9 ligand (DNA GGTGCATCGATGCAGGGGGG; chemistry not given here)
[1]; ID, LN, Module#(LN) 1
  z sum, 1444615_x_at Runx1t1: 3.519
[1]; ID, LN, Module#(LN) 3
  z sum, 1420894_at Tgfbr1: 3.333
[1]; ID, LN, Module#(LN) 7
  z sum, 1460069_at Smc6: 3.274
[1]; ID, LN, Module#(LN) 8
  z sum, 1440371_at ---: 3.29
[1]; ID, LN, Module#(LN) 9
  z sum, 1456346_at ---: 3.455
[1]; ID, LN, Module#(LN) 10
  z sum, 1425105_at Rbp3: 3.333
[1]; ID, LN, Module#(LN) 11
  z sum, 1455796_x_at Olfm1: 3.262
[1]; ID, LN, Module#(LN) 12
  z sum, 1443302_at ---: 3.407
[1]; ID, LN, Module#(LN) 14
  z sum, 1442518_at C030044O21Rik: 3.546
[1]; ID, LN, Module#(LN) 19
  z sum, 1419486_at Foxc1: 3.344
[1]; ID, LN, Module#(LN) 21
  z sum, 1441344_at Erlin1: 3.171
[1]; ID, LN, Module#(LN) 24
  z sum, 1423611_at Alpl: 3.194
  z sum, 1448179_at Usmg5: 3.461
[1]; ID, LN, Module#(LN) 26
  z sum, 1458457_at ---: 3.147
[1]; ID, LN, Module#(LN) 28
  z sum, 1450377_at Thbs1: 3.002
[1]; ID, LN, Module#(LN) 32
  z sum, 1443853_x_at Sfmbt1: 3.51
[1]; ID, LN, Module#(LN) 33
  z sum, 1443392_at Trpv1: 3.184
[1]; ID, LN, Module#(LN) 36
  z sum, 1440475_at AW011738: 3.038
[1]; ID, LN, Module#(LN) 37
  z sum, 1416380_at Mov10: 3.277
  z sum, 1421008_at Rsad2: 3.221
  z sum, 1421009_at Rsad2: 3.209
  z sum, 1424339_at Oasl1: 3.198
  z sum, 1426013_s_at Plekha4: 3.228
  z sum, 1436058_at Rsad2: 3.281
  z sum, 1436472_at Slfn9: 3.595
  z sum, 1447241_at ---: 3.033
[1]; ID, LN, Module#(LN) 39
  z sum, 1416039_x_at Cyr61: 3.015
[1]; ID, LN, Module#(LN) 40
  z sum, 1418191_at Usp18: 3.035
  z sum, 1418293_at Ifit2: 3.02
  z sum, 1418580_at Rtp4: 3.028
  z sum, 1419603_at Ifi204: 3.659
  z sum, 1421911_at Stat2: 3.137
  z sum, 1422006_at Eif2ak2: 3.279
  z sum, 1422141_s_at Csprs///Gm15433///Gm2666///Gm7609///LOC100041903///LOC100503923: 3.074
  z sum, 1423555_a_at Ifi44: 3.551
  z sum, 1424444_a_at 1600014C10Rik: 3.108
  z sum, 1424607_a_at Gm4354: 3.422
  z sum, 1424609_a_at Cwc22///Gm4354///Xdh: 3.429
  z sum, 1431095_a_at Herc6: 3.065
  z sum, 1432417_a_at Tspan2: 3.906
  z sum, 1439886_at ---: 3.151
  z sum, 1450403_at Stat2: 3.389
  z sum, 1451777_at Ddx60: 3.02
  z sum, 1452349_x_at Ifi205///Mnda: 3.123
  z sum, 1453196_a_at Oasl2: 3.123
  z sum, 1453299_a_at Pnp///Pnp2: 3.12
  z sum, 1453757_at Herc6: 3.183
  z sum, 1456164_at AW011738: 3.347
  z sum, 1457035_at Al607873: 3.377
[1]; ID, LN, samples x1-x3, Module#(LN) 7
  z-score of fold change, 1460069_at Smc6: 0.716 and 1.173 and 1.385
[1]; ID, LN, samples x1-x3, Module#(LN) 14
  z-score of fold change, 1442518_at C030044O21Rik: 0.953 and 1.161 and 1.432
[1]; ID, LN, samples x1-x3, Module#(LN) 24
  z-score of fold change, 1423611_at Alpl: 0.707 and 1.244
[1]; ID, LN, samples x1-x3, Module#(LN) 37
  z-score of fold change, 1436472_at Slfn9: 1.143 and 1.047 and 1.405
[1]; [4]
  z-score of fold change, 1419603_at Ifi204: 1.185 and 1.269 and 1.205
  z-score of fold change, 1422006_at Eif2ak2: 1.174 and 1.037 and 1.068
  z-score of fold change, 1424607_a_at Gm4354: 1.005 and 1.314 and 1.103
  z-score of fold change, 1424609_a_at Cwc22///Gm4354///Xdh: 1.178 and 1.294 and 0.958
  z-score of fold change, 1432417_a_at Tspan2: 1.133 and 1.404 and 1.369
  z-score of fold change, 1451777_at Ddx60: 0.83 and 1.215 and 0.975
  z-score of fold change, 1457035_at Al607873: 0.908 and 1.231 and 1.239
[1]; LN, z-scores and 40 module mapping
  interferon induction relative to adjuvants targeting the same receptor: relatively stronger interferon inducer than K3 or K3SPG
[1]; [5]
  Z score of gene expression, Adar (probe 1425405_a_at): −0.1 and −0.3 (2×)
  Z score of gene expression, Adar (probe 1434268_at): −0.3 (2×) and −0.4
  Z score of gene expression, Ddx58 (probe 1436562_at): −0.4 (2×) and −0.1
  Z score of gene expression, Ddx58 (probe 1456890_at): −0.3 (2×) and −0.4
  Z score of gene expression, Eif2ak2 (probe 1422005_at): −0.5 and −0.4 (2×)
  Z score of gene expression, G3bp2 (probe 1421323_a_at): −0.5 and −0.4 (2×)
  Z score of gene expression, Gm9706///Isg15 (probe 1431591_s_at): −0.5
  Z score of gene expression, H2-T10///H2-T22///H2-T9 (probe 1449875_s_at): −0.4 and −0.3 and −0.2
  Z score of gene expression, Ifih1 (probe 1426276_at): −0.5 (2×) and −0.3
  Z score of gene expression, Ifit1 (probe 1449025_at): −0.5
  Z score of gene expression, Ifit1 (probe 1450783_at): −0.5 and −0.4 (2×)
  Z score of gene expression, Irf7 (probe 1417244_a_at): −0.3 (2×) and −0.2
  Z score of gene expression, Irgm1 (probe 1418825_at): −0.5 (2×) and −0.3
  Z score of gene expression, Mndal (probe 1426906_at): −0.5 and −0.4 and −0.3
  Z score of gene expression, Pml (probe 1448757_at): −0.7 and −0.4 and −0.3
  Z score of gene expression, Pml (probe 1456103_at): −0.4 and −0.3 (2×)
  Z score of gene expression, Rnf213 (probe 1455500_at): −0.4
  Z score of gene expression, Rsad2 (probe 1436058_at): −0.5
  Z score of gene expression, Shisa5 (probe 1423986_a_at): −0.5 and −0.6 and −0
  Z score of gene expression, Shisa5 (probe 1437503_a_at): −0.4 (2×) and 0.15
  Z score of gene expression, Stat1 (probe 1450033_a_at): −0.5 (2×) and −0.4
  Z score of gene expression, Stat1 (probe 1450034_at): −0.5
  Z score of gene expression, Tdrd7 (probe 1426716_at): −0.4 (2×) and −0.1
  Z score of gene expression, Tor1aip2 (probe 1418115_s_at): −0.4 and −0.6 and −0.1
  Z score of gene expression, Tor1aip2 (probe 1418116_at): −0.4 and −0.5 and −0.2
  Z score of gene expression, Tor1aip2 (probe 1435526_at): −0.4 (2×) and −0.5
  Z score of gene expression, Trim12a (probe 1437432_a_at): −0.4 (2×) and −0.5
  Z score of gene expression, Uba7 (probe 1426970_a_at): −0.8 and −0.6 and −0.5
[2]; fold change <0.667, p<0.01, customized PA call=1, 6 h after adjuvant
  Number of gene probes with statistically significant changes (sDEGs), SP, Down: 19
[2]; fold change >1.5, p<0.01, customized PA call=1, 6 h after adjuvant
  Number of gene probes with statistically significant changes (sDEGs), SP, Up: 23
[3]; hierarchical clustering
  adjuvant group (cluster) in LN: G5
[3]; i.d. administration, fold change <0.667, p<0.01, customized PA call=1, 6 h after adjuvant
  Number of gene probes with statistically significant changes (sDEGs), LN, Down: 12
[3]; i.d. administration, fold change >1.5, p<0.01, customized PA call=1, 6 h after adjuvant
  Number of gene probes with statistically significant changes (sDEGs), LN, Up: 69
